Measured values as given in ChEMBL document CHEMBL1201862, “PubChem BioAssay data set” (2004).
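How tested: cells in 96-well plates exposed to compound for 48 hours at five concentrations. The concentration for 50% growth inhibition is given as GI50.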 Calls of active or inactive are those of the source. No stated cut-off is given here; in the data, active = GI50 up to about 1.1 µM and inactive = higher.

Experiments:
Test in all cases: DTP human tumour cell line panel, 48 h
786-0 = system: 786-0
A549 = system: A549
ACHN = system: ACHN
CAKI-1 = system: CAKI-1
CCRF-CEM = system: CCRF-CEM
COLO 205 = system: COLO 205
DLD-1 = system: DLD-1
DMS-114 = system: DMS-114
DMS-273 = system: DMS-273
EKVX = system: EKVX
HCC 2998 = system: HCC 2998
HCT-116 = system: HCT-116
HL-60 = system: HL-60
HOP-18 = system: HOP-18
HOP-62 = system: HOP-62
HOP-92 = system: HOP-92
HT-29 = system: HT-29
K562 = system: K562
KM-20L2 = system: KM-20L2
KM12 = system: KM12
LOX IMVI = system: LOX IMVI
LXFL 529 = system: LXFL 529
M14 = system: M14
M19-MEL = system: M19-MEL
MOLT-4 = system: MOLT-4
Malme-3M = system: Malme-3M
NCI-H226 = system: NCI-H226
NCI-H23 = system: NCI-H23
NCI-H460 = system: NCI-H460
NCI-H522 = system: NCI-H522
OVCAR-3 = system: OVCAR-3
OVCAR-4 = system: OVCAR-4
OVCAR-5 = system: OVCAR-5
OVCAR-8 = system: OVCAR-8
RPMI-8226 = system: RPMI-8226
RXF 393 = system: RXF 393
SF-268 = system: SF-268
SF-295 = system: SF-295
SF-539 = system: SF-539
SK-MEL-28 = system: SK-MEL-28
SK-MEL-2 = system: SK-MEL-2
SK-MEL-5 = system: SK-MEL-5
SK-OV-3 = system: SK-OV-3
SN12C = system: SN12C
SNB-19 = system: SNB-19
SNB-75 = system: SNB-75
SNB-78 = system: SNB-78
SR = system: SR
SW-620 = system: SW-620
TK-10 = system: TK-10
U-251 = system: U-251
UACC-257 = system: UACC-257
UACC-62 = system: UACC-62
UO-31 = system: UO-31
A498 = system: A498
DU-145 = system: DU-145
HCT-15 = system: HCT-15
Hs-578T = system: Hs-578T
IGROV-1 = system: IGROV-1
MCF7 = system: MCF7
MDA-MB-231 = system: MDA-MB-231
MDA-MB-435 = system: MDA-MB-435
MDA-N = system: MDA-N
NCI/ADR-RES = system: NCI/ADR-RES
PC-3 = system: PC-3
T47D = system: T47D
XF498 = system: XF498

SMILES: N#C/C(=C/c1ccc([N+](=O)[O-])o1)c1ccccc1
- GI50 (786-0): > 100 µM (inactive)
- GI50 (A549): > 100 µM (inactive)
- GI50 (ACHN): > 100 µM (inactive)
- GI50 (CAKI-1): > 100 µM (inactive)
- GI50 (CCRF-CEM): > 100 µM (inactive)
- GI50 (COLO 205): > 100 µM (inactive)
- GI50 (DLD-1): > 100 µM (inactive)
- GI50 (DMS-114): > 100 µM (inactive)
- GI50 (DMS-273): > 100 µM (inactive)
- GI50 (EKVX): > 100 µM (inactive)
- GI50 (HCC 2998): > 100 µM (inactive)
- GI50 (HCT-116): > 100 µM (inactive)
- GI50 (HL-60): > 100 µM (inactive)
- GI50 (HOP-18): > 100 µM (inactive)
- GI50 (HOP-62): > 100 µM (inactive)
- GI50 (HOP-92): > 100 µM (inactive)
- GI50 (HT-29): > 100 µM (inactive)
- GI50 (K562): > 100 µM (inactive)
- GI50 (KM-20L2): > 100 µM (inactive)
- GI50 (KM12): > 100 µM (inactive)
- GI50 (LOX IMVI): > 100 µM (inactive)
- GI50 (LXFL 529): > 100 µM (inactive)
- GI50 (M14): > 100 µM (inactive)
- GI50 (M19-MEL): > 100 µM (inactive)
- GI50 (MOLT-4): > 100 µM (inactive)
- GI50 (Malme-3M): > 100 µM (inactive)
- GI50 (NCI-H226): > 100 µM (inactive)
- GI50 (NCI-H23): > 100 µM (inactive)
- GI50 (NCI-H460): > 100 µM (inactive)
- GI50 (NCI-H522): > 100 µM (inactive)
- GI50 (OVCAR-3): > 100 µM (inactive)
- GI50 (OVCAR-4): > 100 µM (inactive)
- GI50 (OVCAR-5): > 100 µM (inactive)
- GI50 (OVCAR-8): > 100 µM (inactive)
- GI50 (RPMI-8226): > 100 µM (inactive)
- GI50 (RXF 393): > 100 µM (inactive)
- GI50 (SF-268): > 100 µM (inactive)
- GI50 (SF-295): > 100 µM (inactive)
- GI50 (SF-539): > 100 µM (inactive)
- GI50 (SK-MEL-28): > 100 µM (inactive)
- GI50 (SK-MEL-2): > 100 µM (inactive)
- GI50 (SK-MEL-5): > 100 µM (inactive)
- GI50 (SK-OV-3): > 100 µM (inactive)
- GI50 (SN12C): > 100 µM (inactive)
- GI50 (SNB-19): > 100 µM (inactive)
- GI50 (SNB-75): 97.7 µM (inactive)
- GI50 (SNB-78): > 100 µM (inactive)
- GI50 (SR): > 100 µM (inactive)
- GI50 (SW-620): > 100 µM (inactive)
- GI50 (TK-10): > 100 µM (inactive)
- GI50 (U-251): > 100 µM (inactive)
- GI50 (UACC-257): > 100 µM (inactive)
- GI50 (UACC-62): > 100 µM (inactive)
- GI50 (UO-31): > 100 µM (inactive)

SMILES: O=C(CCC1CCCCN1)Nc1ccc2c(c1)C(=O)c1ccc(NC(=O)CCN3CCCCC3)cc1C2=O (stereo unspecified)
- GI50 (786-0): 9.75 µM (inactive)
- GI50 (A498): 4.14 µM (inactive)
- GI50 (A549): 5.19 µM (inactive)
- GI50 (ACHN): 1.45 µM (inactive)
- GI50 (CAKI-1): 2.11 µM (inactive)
- GI50 (CCRF-CEM): 8.73 µM (inactive)
- GI50 (COLO 205): 1.35 µM (inactive)
- GI50 (DLD-1): 1.61 µM (inactive)
- GI50 (DMS-114): 1.59 µM (inactive)
- GI50 (DMS-273): 2.54 µM (inactive)
- GI50 (DU-145): > 10 µM (inactive)
- GI50 (EKVX): > 10 µM (inactive)
- GI50 (HCC 2998): > 10 µM (inactive)
- GI50 (HCT-116): 2.03 µM (inactive)
- GI50 (HCT-15): 1.58 µM
- GI50 (HL-60): 5.77 µM (inactive)
- GI50 (HOP-18): 2.79 µM (inactive)
- GI50 (HOP-62): 9.29 µM (inactive)
- GI50 (HOP-92): 2 µM (inactive)
- GI50 (HT-29): 2.52 µM (inactive)
- GI50 (Hs-578T): > 10 µM (inactive)
- GI50 (IGROV-1): 6.82 µM (inactive)
- GI50 (K562): 1.83 µM (inactive)
- GI50 (KM-20L2): 3.21 µM (inactive)
- GI50 (KM12): 2.33 µM (inactive)
- GI50 (LOX IMVI): 1.21 µM (inactive)
- GI50 (LXFL 529): 1.32 µM (inactive)
- GI50 (M14): 1.32 µM (inactive)
- GI50 (M19-MEL): 2.04 µM (inactive)
- GI50 (MCF7): > 10 µM (inactive)
- GI50 (MDA-MB-231): > 10 µM (inactive)
- GI50 (MDA-MB-435): > 10 µM (inactive)
- GI50 (MDA-N): > 10 µM (inactive)
- GI50 (MOLT-4): 1.95 µM (inactive)
- GI50 (Malme-3M): 1.43 µM (inactive)
- GI50 (NCI-H226): 4.66 µM (inactive)
- GI50 (NCI-H23): 2.21 µM (inactive)
- GI50 (NCI-H460): 4.17 µM (inactive)
- GI50 (NCI-H522): 1.38 µM (inactive)
- GI50 (NCI/ADR-RES): > 10 µM (inactive)
- GI50 (OVCAR-3): 2.37 µM (inactive)
- GI50 (OVCAR-4): 1.65 µM (inactive)
- GI50 (OVCAR-5): 2.34 µM (inactive)
- GI50 (OVCAR-8): 2.37 µM (inactive)
- GI50 (PC-3): > 10 µM (inactive)
- GI50 (RPMI-8226): 7.55 µM (inactive)
- GI50 (RXF 393): 0.776 µM (active)
- GI50 (SF-268): 3.3 µM (inactive)
- GI50 (SF-295): 3.56 µM (inactive)
- GI50 (SF-539): 2.97 µM (inactive)
- GI50 (SK-MEL-28): 1.7 µM (inactive)
- GI50 (SK-MEL-2): 1.37 µM (inactive)
- GI50 (SK-MEL-5): 1.4 µM (inactive)
- GI50 (SK-OV-3): 5.3 µM (inactive)
- GI50 (SN12C): 1.91 µM (inactive)
- GI50 (SNB-19): 7.19 µM (inactive)
- GI50 (SNB-75): 2.62 µM (inactive)
- GI50 (SNB-78): 4.56 µM (inactive)
- GI50 (SR): 0.493 µM (active)
- GI50 (SW-620): > 10 µM (inactive)
- GI50 (T47D): > 10 µM (inactive)
- GI50 (TK-10): 1.22 µM (inactive)
- GI50 (U-251): 8.13 µM (inactive)
- GI50 (UACC-257): 1.44 µM (inactive)
- GI50 (UACC-62): 1.22 µM (inactive)
- GI50 (UO-31): 1.21 µM (inactive)

SMILES: O=C1c2ccccc2C(=O)c2c1ccc1c3ccccc3n(Cc3ccccc3)c21
- GI50 (786-0): > 100 µM (inactive)
- GI50 (A549): > 100 µM (inactive)
- GI50 (ACHN): 94.2 µM (inactive)
- GI50 (CAKI-1): > 100 µM (inactive)
- GI50 (CCRF-CEM): > 100 µM (inactive)
- GI50 (COLO 205): > 100 µM (inactive)
- GI50 (DLD-1): > 100 µM (inactive)
- GI50 (DMS-114): > 100 µM (inactive)
- GI50 (EKVX): > 100 µM (inactive)
- GI50 (HCT-116): > 100 µM (inactive)
- GI50 (HCT-15): > 100 µM
- GI50 (HL-60): > 100 µM (inactive)
- GI50 (HOP-18): 0.0319 µM (active)
- GI50 (HOP-62): > 100 µM (inactive)
- GI50 (HOP-92): 26.2 µM (inactive)
- GI50 (HT-29): > 100 µM (inactive)
- GI50 (IGROV-1): > 100 µM (inactive)
- GI50 (K562): > 100 µM (inactive)
- GI50 (KM12): > 100 µM (inactive)
- GI50 (LOX IMVI): > 100 µM (inactive)
- GI50 (LXFL 529): > 100 µM (inactive)
- GI50 (M14): > 100 µM (inactive)
- GI50 (M19-MEL): 88.7 µM (inactive)
- GI50 (MOLT-4): > 100 µM (inactive)
- GI50 (Malme-3M): > 100 µM (inactive)
- GI50 (NCI-H226): 54.6 µM (inactive)
- GI50 (NCI-H460): 88.9 µM (inactive)
- GI50 (NCI-H522): > 100 µM (inactive)
- GI50 (OVCAR-3): > 100 µM (inactive)
- GI50 (OVCAR-4): 53.6 µM (inactive)
- GI50 (OVCAR-5): > 100 µM (inactive)
- GI50 (OVCAR-8): > 100 µM (inactive)
- GI50 (RPMI-8226): > 100 µM (inactive)
- GI50 (SF-268): > 100 µM (inactive)
- GI50 (SF-295): > 100 µM (inactive)
- GI50 (SF-539): > 100 µM (inactive)
- GI50 (SK-MEL-2): > 100 µM (inactive)
- GI50 (SK-MEL-5): > 100 µM (inactive)
- GI50 (SK-OV-3): > 100 µM (inactive)
- GI50 (SN12C): > 100 µM (inactive)
- GI50 (SNB-75): 2.35 µM (inactive)
- GI50 (SR): > 100 µM (inactive)
- GI50 (SW-620): > 100 µM (inactive)
- GI50 (UACC-62): > 100 µM (inactive)
- GI50 (UO-31): > 100 µM (inactive)
- GI50 (XF498): > 100 µM (inactive)
